Our source for the TGI values is PubChem BioAssay (NCI).

Holding throughout (assay): NCI-60 cell line screen, 48 h
The subject of assay [1] is HCT-116 colon.
The test system of assay [2] is SF-539 CNS.
Assay [3] relates to DU-145 prostate.
Assay [4] concerns U251 CNS.
In assay [5] the test system is SK-OV-3 ovarian.
Assay [6] relates to A549 NSCLC.
Assay [7] concerns UACC-62 melanoma.
Assay [8] has as its system TK-10 renal.
For assay [9], the system named is NCI/ADR-RES ovarian.
Assay [10] has as its system NCI-H226 lung.

Molecules are shown by their SMILES.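 A five-concentration, 48-hour dose response in 96-well plates underlies each endpoint, interpolated linearly between surrounding concentrations. TGI: total growth inhibition.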 Where a SMILES comes first, the peptide text is derived from it. The star is where a group is joined. Boc = CC(C)(C)OC(=O)* Bounds are passed on as bounds.

On to `CCc1nn(S(=O)(=O)c2ccc(C)cc2)c2c1CS(=O)(=O)CC2`, for which the TGI in assay [1], in assay [2], in assay [3], in assay [4], in assay [5] and in assay [6] was more than 100 µM each time. For the same compound, the TGI in assay [7], in assay [8] and in [9] was more than 100 µM each time.

In the case of `COC(=O)C(Cc1c[nH]c2ccccc12)NC(=O)C(Cc1c[nH]c2ccccc12)NC(=O)C(Cc1c[nH]c2ccccc12)NC(=O)C(Cc1c[nH]c2ccccc12)NC(=O)OC(C)(C)C` (stereo not drawn) (Boc-WWWW-OMe; configuration not given here), the TGI in [1] was 44.2 µM; in [3], more than 100 µM; in assay [4] it was 34.6 µM; in assay [10], more than 100 µM; in assay [6] it was more than 100 µM; in assay [7], 38.4 µM. In assay [8], this compound came in with a TGI of more than 100 µM.

Turning to `O=C1O[C@H](C(Cl)(Cl)Cl)N2CCCC12` (stereo partly drawn), the TGI in [2], in [4], in assay [10], in assay [5], in assay [6] and in [7] was more than 100 µM each time. In assay [8], the TGI was more than 100 µM.

On to `CCCn1c(=O)c2ccccc2[n+]2c(-c3ccc([N+](=O)[O-])cc3)csc12`, for which the TGI is more than 100 µM in [1]; 49.2 µM in assay [2]; more than 100 µM in assay [3]; more than 100 µM in assay [4]; more than 100 µM in assay [10]; more than 100 µM in assay [5]. Moreover, the TGI in [6] was more than 100 µM; in assay [7] it was more than 100 µM; in assay [9], 36.5 µM.

Consider `Cc1nccn1S(=O)(=O)c1ccc(Br)cc1Br`, for which the TGI in assay [1] was more than 100 µM; in assay [2], 41.4 µM; in [3], more than 100 µM; in assay [4], more than 100 µM; in [5], more than 100 µM; in [6], more than 100 µM. Further, the TGI in [7], in [8] and in assay [9] was more than 100 µM in each case.

In the case of `COc1ccccc1NC(=S)N/N=C(/C)c1ccccn1`, the TGI was 13.8 µM in assay [1]; 14.9 µM in assay [2]; more than 100 µM in assay [3]; more than 100 µM in assay [4]; more than 89.2 µM in assay [5]; more than 55.3 µM in assay [6]. In assay [8], this compound showed a TGI of 58.9 µM.

On to `CC(C)(C)OC(=O)NC(Cc1ccc(O)cn1)C(N)=O` (stereo not drawn), for which the TGI in assay [1], in [2], in [3], in assay [4], in assay [10] and in assay [6] was more than 100 µM in each case. Further, the TGI in assay [8] and in assay [9] was more than 100 µM in each case.

Regarding `O=C(Nc1c(Cl)cc([N+](=O)[O-])cc1Cl)C(=O)C1C(=O)NC(=S)NC1=O`, the TGI in assay [1], in assay [2], in assay [4], in assay [10], in assay [5] and in assay [6] was more than 100 µM throughout. The TGI in assay [7], in assay [8] and in assay [9] was more than 100 µM each time.

In the case of `CCOC(=O)C(=O)C1C(=O)Nc2ccccc21` (stereo not drawn), the TGI in assay [1], in assay [4], in assay [10], in assay [6], in [7] and in [8] was more than 100 µM throughout.

`C[C@H](CC[C@@H](O)C(C)(C)O)[C@H]1CC[C@@]2(C)[C@@H]3CC=C4[C@@H](CC[C@H](O)C4(C)C)[C@]3(C)C(=O)C[C@]12C`: the TGI in assay [1], in assay [2], in assay [3], in [4], in assay [10] and in assay [5] was more than 50 µM throughout. The TGI in assay [6], in assay [8] and in [9] was more than 50 µM throughout.

In the case of `COc1ccc(Oc2nc3ccc(C(F)(F)F)cc3nc2-c2ccccc2)cc1`, the TGI in [1], in [3], in assay [4], in assay [10], in assay [5] and in [7] was more than 100 µM throughout. The TGI in [8] is more than 100 µM.

Consider `CCNC(=O)/C=C/CCC#Cc1ccc(-c2ccc(-c3cccs3)s2)s1`, for which the TGI in [1], in assay [2], in assay [4], in assay [10], in [5] and in assay [6] was more than 100 µM each time. Moreover, the TGI in assay [7] and in assay [8] was more than 100 µM each time.

`Cc1ccc(S(=O)(=O)NC(=O)NCCC(=O)O)cc1`: the TGI in assay [1], in assay [2], in assay [3], in [4], in assay [5] and in assay [6] was more than 100 µM throughout. In addition, the TGI in assay [7] and in assay [8] was more than 100 µM each time.

As to `CO/C(=N\N=C\c1ccc(Cl)cc1Cl)c1ccncc1`, the TGI in assay [1], in assay [3], in [4], in assay [10], in [6] and in [8] was more than 10 µM each time. In addition, the TGI in assay [9] was more than 10 µM.

Regarding `Cn1c(-c2ccc[se]2)ccc1-c1ccc(CO)[se]1`, the TGI in assay [1] was more than 100 µM; in [2] it was more than 100 µM; in [3] it was more than 78 µM; in [4], 15.8 µM; in assay [10] it was 0.884 µM; in assay [5] it was 42.5 µM. Moreover, the TGI in assay [6] is more than 100 µM; in [7], more than 100 µM; in [9], 52.2 µM.

Consider `CN1C/C(=C\c2ccc(Cl)cc2)C(=O)/C(=C/c2ccc(Cl)cc2)C1`, for which the TGI was 0.482 µM in assay [1]; 1.8 µM in assay [2]; more than 100 µM in [3]; 2.46 µM in assay [4]; 8.7 µM in [10]; more than 100 µM in assay [6]. Besides, the TGI in assay [7] is 8.35 µM; in assay [8], more than 100 µM; in assay [9] it was more than 22.5 µM.
